In article PMC3412845, “Waking Action of Ursodeoxycholic Acid (UDCA) Involves Histamine and GABAA Receptor Block” (PLoS ONE, 2012):
Values joined by “and” are separate entries in the source; they are usually repeats but may differ in a detail not shown here. Equal values may be shown once.

Columns and labels:
[1] = system: isolated TMN neurons (sIPSCs); assay: sIPSCs in acutely isolated and cultured neurons; format: cell-based
Experimental: Recordings from histaminergic neurons in male Wistar rat (22–26 day old) or 30–60 day old mouse (SV129, histidine decarboxylase deficient HDC−/− or their wild type littermates) hypothalamic slices were performed as previously described. Slices were obtained between 9 and 11 a.m. In the beginning of whole-cell voltage clamp recordings TMN neurons were identified with the help of DIC microscopy and electrophysiological criteria as previously described. Inhibitory postsynaptic currents (IPSCs) were evoked by local stimulation through a bipolar stainless-steel stimulating electrode (50 µm; WPI, UK). The stimulation of axonal endings coming to TMN from ventrolateral preoptic area (VLPO) was done as described in [22]. […] Individual neurons were separated by vibrodissociation after brief preincubation with papain from the hypothalamic slices of mice or rats and identified as TMN neurons according to their size and shape. Identification was confirmed post hoc with the single-cell RT-PCR (all data presented in the manuscript were obtained from histidine decarboxylase-expressing neurons), [40]. TMN neurons from HDC−/− mice were identified by the expression of peripherin [16]. Whole-cell voltage-clamp recordings from isolated neurons were done with an EPC-9 amplifier and TIDA for Windows (HEKA, Lambrecht, Germany) at room temperature. Membrane potentials were not corrected for liquid junction potential (5.6 mV, calculated with LJPCalc, Barry, 1994). The intracellular solution was composed of (in mM) 140 KCl, 2 MgCl2, 0.5 CaCl2, 5 EGTA, 2 ATP and 10 HEPES (pH 7.2 adjusted with NaOH). A fast perfusion technique was used for application of ligands and modulators of fast ionotropic receptors, [41]. […] EC50 is the ligand concentration producing a half-maximal response, [ligand] is ligand concentration, and n is the Hill slope. Hill coefficients were obtained from the slope of the log/log plot of the dose-response curves. […] Steady-state amplitudes of the responses were used for the construction of dose-response plots if not mentioned otherwise.

[2] = set-up: method as in PMID 12236487, PMID 15349909; conditions: after several month of UDCA therapy (up to 35 mg/kg); cited from earlier work
[3] = molecular target: T1, α1Q241L mutant α1β2γ2L GABAA receptors (UniProt P22723+P62813+P63138, Q268L); assay: Patch-clamp of mutant α1Q241L-containing α1β2γ2L GABAAR in HEK293 cells; format: cell-based, rat α1Q241L, rat β2, mouse γ2L; conditions: UDCA 100 µM, 500 µM GABA, n = 5
T1 construct: expressed in transfected cells; host or cells: HEK293
T1 sequence (P62813 28-455 Q268L): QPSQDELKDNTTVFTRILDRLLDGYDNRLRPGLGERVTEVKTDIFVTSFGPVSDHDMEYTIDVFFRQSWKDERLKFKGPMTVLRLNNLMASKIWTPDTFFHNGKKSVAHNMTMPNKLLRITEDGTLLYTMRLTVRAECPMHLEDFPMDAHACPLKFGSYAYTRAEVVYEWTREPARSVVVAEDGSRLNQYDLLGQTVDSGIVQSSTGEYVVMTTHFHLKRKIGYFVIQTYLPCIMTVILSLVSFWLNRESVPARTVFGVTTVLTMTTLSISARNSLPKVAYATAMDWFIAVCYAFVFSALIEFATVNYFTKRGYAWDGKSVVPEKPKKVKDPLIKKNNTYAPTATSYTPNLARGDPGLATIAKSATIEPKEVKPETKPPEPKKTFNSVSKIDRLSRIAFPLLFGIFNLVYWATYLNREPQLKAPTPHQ
T1 sequence (P63138 25-474 limits assumed): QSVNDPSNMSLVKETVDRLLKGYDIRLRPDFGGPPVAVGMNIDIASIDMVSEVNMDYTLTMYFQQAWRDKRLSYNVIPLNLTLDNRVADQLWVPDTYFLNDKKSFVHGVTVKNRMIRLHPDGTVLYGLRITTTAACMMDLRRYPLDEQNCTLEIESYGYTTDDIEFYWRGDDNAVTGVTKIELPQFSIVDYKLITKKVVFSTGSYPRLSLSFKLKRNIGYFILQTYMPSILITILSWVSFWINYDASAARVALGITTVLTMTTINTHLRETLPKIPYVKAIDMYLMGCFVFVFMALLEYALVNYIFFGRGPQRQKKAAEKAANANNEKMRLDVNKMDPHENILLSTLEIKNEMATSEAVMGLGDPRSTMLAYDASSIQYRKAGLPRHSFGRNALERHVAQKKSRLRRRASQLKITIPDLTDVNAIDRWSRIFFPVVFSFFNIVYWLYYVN
T1 sequence (P22723 39-474): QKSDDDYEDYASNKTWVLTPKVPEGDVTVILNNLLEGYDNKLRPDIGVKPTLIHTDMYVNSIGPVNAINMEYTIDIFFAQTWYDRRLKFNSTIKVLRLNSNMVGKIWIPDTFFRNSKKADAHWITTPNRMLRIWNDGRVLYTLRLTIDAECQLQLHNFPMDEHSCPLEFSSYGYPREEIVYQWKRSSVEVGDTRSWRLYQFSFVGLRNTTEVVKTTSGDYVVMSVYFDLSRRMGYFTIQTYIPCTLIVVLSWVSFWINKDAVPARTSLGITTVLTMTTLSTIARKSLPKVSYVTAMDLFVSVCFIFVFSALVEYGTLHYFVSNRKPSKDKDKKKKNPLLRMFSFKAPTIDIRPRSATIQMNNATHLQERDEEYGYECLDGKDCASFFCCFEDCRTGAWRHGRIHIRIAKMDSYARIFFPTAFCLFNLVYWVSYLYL
Experimental: (§1) HEK 293 cells were obtained from DSM (Deutsche Sammlung von Mikroorganismen und Zellkulturen GmbH, DSM, Braunschweig). They were grown and maintained according to published standard protocols. Briefly, cells were grown in minimal essential medium supplemented with 10% fetal bovine serum, 100units/ml penicillin and streptomycin and 2 mM L-glutamine and splitted once per week. Semiconfluent cells were transfected on the third day after splitting with the help of Lipofectamine 2000 (Invitrogen), recordings were done 48–72 hrs after transfection.
(§2) The GABAAR subunit cDNAs, generously donated by G.Gisselmann (rat α1, mouse γ2L, rat β1, β2 and human β3 [26]) and J.H. Steinbach (rat α1V256S [28] and rat α1Q241L [44]), were subcloned into pcDNA3 (Invitrogen, Karlsruhe, Germany) and applied in a ratio 1∶1∶1 for the α1βxγ2L receptor and 1∶1 for α1β3 or β3γ2L receptors. […] For each receptor type patch clamp recordings were obtained from at least three separate transfections. Whole-cell patch clamp recordings were done in a similar extracellular solution as for the native cells (see above) except that the concentration of MgCl2 was reduced to 1.2 mM. Intracellular electrodes contained 140 mM CsCl (instead of KCl), pH adjusted with CsOH. The voltage was held at −40 mV.

[4] = system: HDC+/+ mice; assay: Polygraphic (EEG/EMG) sleep-wake recording in wild type mice; format: in vivo, mouse
Experimental: Animal experiments were conducted according to the Animal Protection Law of the Federal Republic of Germany and the local guidelines (Bezirksregierung Duesseldorf) and were in accordance with the European Communities Council directive regarding care and use of animals for experimental procedures (86/609/EEC). The general protocol of sleep-wake recording and experiment in the mouse was approved by the ethic committee of Claude Bernard University of Lyon. All efforts were made to minimize the number of animals and their suffering. At the age of 12 weeks and with a body weight of 30±2 g HDC wild type and knockout mice used for EEG and sleep-wake studies were chronically implanted, under deep gas anesthesia using isoflurane (2%, 200 ml/min) and a TEM anesthesia system (Bordeaux, France), with six cortical electrodes (gold-plated tinned copper wire, Ø = 0.4 mm, Filotex, Draveil, France) and three neck muscle electrodes (fluorocarbon-coated gold-plated stainless steel wire, Ø = 0.03 mm, Cooner Wire Chatworth, CA, U.S.A.) to record the electroencephalogram (EEG) and electromyogram (EMG) and to monitor the sleep-wake cycle. Finally, the electrode assembly was anchored and fixed to the skull with Super-Bond (Sun Medical Co., Shiga, Japan) and dental cement. This implantation allows stable and long-lasting polygraphic recordings.
After surgery, the animals were housed individually in barrels placed in an insulated sound-proof recording room maintained at an ambient temperature of 22±1°C and on a 12 h light/dark cycle (lights-on at 7 a.m.), standard food and water being available ad libitum. After a 7-days recovery period, mice were habituated to the recording cable for 7 days before polygraphic recordings were started. Cortical EEG (contralateral frontoparietal leads) and EMG signals were amplified, digitized with a resolution of 256 and 128 Hz, respectively, and computed on a CED 1401 Plus (Cambridge, UK). Using a Spike2 script and with the assistance of spectral analysis using the fast Fourier transform, polygraphic records were visually scored by 30-sec epochs for wakefulness (W), slow wave sleep (SWS), and paradoxical sleep (PS) according to previously described criteria validated for mice.
Animals were subjected to 12 h sleep-wake recordings following administration of URSOFALK (clinically used UDCA, 32 mg/kg) through the oral route (per os) at 10 a.m. (during the sleepy period) or at 7 p.m. (during the active period). Each animal received twice single dose of UDCA and twice equal volume of vehicle. There was an interval of 7 days between any two administrations. UDCA or vehicle was applied at random. The waking, slow wave sleep or paradoxical sleep amounts were compared between vehicle and UCDA within the same animal, the differences being averaged within the groups. […]

[5] = molecular target: T2, α1β2γ2L GABAA receptors (WT) (UniProt P22723+P62813+P63138); assay: Patch-clamp of recombinant wild-type α1β2γ2L GABAAR in HEK293 cells; format: cell-based, rat α1, rat β2, mouse γ2L
T2 construct: expressed in transfected cells; host or cells: HEK293
T2 sequence (P62813 28-455): as the sequence (P62813 28-455 Q268L) above, with L241Q counted along it
T2 sequence (P63138 25-474 limits assumed): as the sequence (P63138 25-474 limits assumed) above
T2 sequence (P22723 39-474): as the sequence (P22723 39-474) above
Experimental: as §1, §2

[6] = UDCA 32 mg/kg per os at 7 p.m., vs vehicle

SMILES: C[C@H](CCC(=O)O)[C@H]1CC[C@H]2[C@@H]3[C@@H](O)C[C@@H]4C[C@H](O)CC[C@]4(C)[C@H]3CC[C@]12C [UDCA, ursodeoxycholic acid]
- decay kinetics of sIPSCs ([1]; 10 µM): significantly accelerated the decay kinetics of sIPSCs in some
- decay kinetics of sIPSCs ([1]; 30 µM): significantly reducing decay kinetics in all investigated neurons
- share of the total bile acid pool [2]: 58–69%
- maximal steady-state GABA current [3]: 54±2 % of control
- sleep wake states ([4]; 32 mg/kg orally at 10 a.m. (quiet period)): did not affect
- waking ([4]; UDCA 32 mg/kg per os at 7 p.m. (active period), vs vehicle, n = 11): significantly increased
- amount of paradoxical sleep (PS) [4, 6]: decreased
- amount of slow wave sleep (SWS) [4, 6]: decreased
- IC50 ([5]; IC50 of inhibition of GABA currents, maximal GABA, WT): 85 µM and 84.7 µM
- relative amplitude of maximal GABA-responses ([5]; UDCA 100 µM, n = 7): 47±3 % of control
